Bounds are passed on as bounds.

The target of this test is T1, recombinant CREBBP bromodomain (Homo sapiens, UniProt Q92793).
T1 construct: recombinant CREBBP bromodomain obtained from BPS Bioscience, USA; purchased BPS Bioscience, USA
Description: CBP TR-FRET displacement assay. Type of test: binding. The note with it: for IC50: dose-response, read-out: IC50 (group A, B, C). The protocol: The potency of compounds to inhibit CREBBP enzyme was tested in a TR-FRET displacement assay using recombinant CREBBP bromodomain obtained from BPS Bioscience, USA. The assay buffer was 50 mM HEPES (pH 7.5), 50 mM NaCl, 0.008% Brij 35, 0.01% BSA, 1 mM TCEP. 50 nM of CREBBP & 500 nM of Biotinylated ligand was incubated at room temperature for 30 minutes, the reaction was initiated by adding pre-incubated enzyme ligand mixture to the test compounds. After 60 min incubation, the reaction was stopped by the addition of stop mix containing 1 nM of LANCE Europium-anti-6xHis antibody (Perkin Elmer, USA) and 40 nM of Sure Light Allophycocyanin-Streptavidin (Perkin Elmer, USA). Fluorescence emission of the samples at 665 and 615 nm were measured at an excitation of 340 nm and their ratio was plotted against the compound concentrations to generate dose-response curve. The percent inhibition of the test compounds is calculated using the ratio of enzyme activity controls.
elected compounds of the present invention were screened in the above-mentioned assay procedures and IC50 values were determined by fitting the dose-response data to sigmoidal curve fitting equation using Graph pad prism software V7.
(Time-resolved FRET reads energy transfer from a long-lived donor to a nearby acceptor.)

T1 sequence (Q92793 1085-1192 limits assumed): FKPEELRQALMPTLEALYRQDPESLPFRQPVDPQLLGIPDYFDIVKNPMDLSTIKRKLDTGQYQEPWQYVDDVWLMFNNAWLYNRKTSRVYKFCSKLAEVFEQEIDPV

Regarding `COc1cc(N2CCN(C)c3cc(-c4ccncc4)c(C#N)cc32)c2cc(C)c(=O)n(C)c2c1` [Example 21], the concentration for half-maximal inhibition (IC50) (usually the midpoint of a concentration-inhibition curve) was under 50 nM.
As for `Cc1cc2c(N3CCN(C4CCOCC4)c4ccccc43)cccc2n(C)c1=O` [Example 78, 1,3-Dimethyl-5-(4-(tetrahydro-2H-pyran-4-yl)-3,4-dihydroquinoxalin-1(2H)-yl)quinolin-2(1H)-one], where the note is “compound at 10 μM”, the inhibition (usually how much of the control response was suppressed) at 10 µM was 25%.
For `Cc1cc2c(N3CCN(C)c4cc(-c5cnn(C)c5)c(C#N)cc43)cc(OCc3ncco3)cc2n(C)c1=O` [Example 41], the IC50 is under 50 nM.
Regarding `COc1cc(N2CCN(C(C)=O)c3cc(-c4cnn(C)c4)c(C#N)cc32)c2cc(C)c(=O)n(C)c2c1` [Example 63, 1-acetyl-4-(7-methoxy-1,3-dimethyl-2-oxo-1,2-dihydroquinolin-5-yl)-7-(1-methyl-1H-pyrazol-4-yl)-1,2,3,4-tetrahydroquinoxaline-6-carbonitrile], the half-inhibitory concentration (IC50) fell in the range of 51 to 100 nM.
On the same count and under the same terms, the result for `COc1cc(N2CCN(C)c3ccc(S(=O)(=O)N(C)C)cc32)c2cc(C)c(=O)n(C)c2c1` [Example 93, 4-(7-Methoxy-1,3-dimethyl-2-oxo-1,2-dihydroquinolin-5-yl)-N,N,1-trimethyl-1,2,3,4-tetrahydroquinoxaline-6-sulfonamide] reads 51 to 100 nM.
`COc1cc(N2CCN(C)c3cc(-c4cnn(C)c4)c(S(N)(=O)=O)cc32)c2cc(C)c(=O)n(C)c2c1` [Example 90]: the IC50 was under 50 nM.
As to `CC(=O)N1CCN(c2cc3c(cc2C(F)F)N(c2cc(N4CCOCC4)cc4c2cc(C)c(=O)n4C)CCC3)CC1` [Example 174, 6-(4-Acetylpiperazin-1-yl)-7-(difluoromethyl)-1′,3′-dimethyl-7′-morpholino-3,4-dihydro-2H-[1,5′-biquinolin]-2′(1′H)-one], the half-maximal inhibitory concentration (IC50) was in the range of 51 to 100 nM.
With `Cc1cc2c(N3CCN(C)c4cc(-c5cnn(C)c5)c(C#N)cc43)cc(OCC3CCCN(C)C3)cc2n(C)c1=O` (single isomer, unassigned) [Example 248, 4-(1,3-Dimethyl-7-((1-methylpiperidin-3-yl)methoxy)-2-oxo-1,2-dihydroquinolin-5-yl)-1-methyl-7-(1-methyl-1H-pyrazol-4-yl)-1,2,3,4-tetrahydroquinoxaline-6-carbonitrile], where the note is “compound at 10 μM, 10 µM”, the “% Inhibition (10 μM)” value is 100%.
As for `COc1cc(N2CCN(C)c3ccc(-c4nn[nH]n4)cc32)c2cc(C)c(=O)n(C)c2c1` [Example 84, 7-Methoxy-1,3-dimethyl-5-(4-methyl-7-(2H-tetrazol-5-yl)-3,4-dihydroquinoxalin-1(2H)-yl)quinolin-2(1H)-one], the IC50 is under 50 nM.
On to `COc1cc(N2CCCc3cc(N4CCN(C(C)=O)CC4)ccc32)c2cc(C)c(=O)n(C)c2c1` [Example 185], for which the IC50 is over 10 nM.
As for `Cc1cc2c(N3CCCc4cc(C5CCCO5)c(C(F)F)cc43)nc(N3CC[C@@H](O)C3)cc2n(C)c1=O` (stereo partly shown) [Example 227], the IC50 was in the range of 51 to 100 nM.
As for `Cc1cc2c(N3CCN(C)c4cc(C5=CCN(C)CC5)ccc43)cccc2n(C)c1=O` [Example 44], the concentration for half-maximal inhibition (IC50) was over 10 nM.
Consider `Cc1cc2c(N3CCN(C)c4cc(-c5cnn(C)c5)c(F)cc43)cc(N(C)C)cc2n(C)c1=O` [Example 45], for which the concentration for half-maximal inhibition (IC50) is under 50 nM.
The same measure, in the same setting: the value for `Cc1cc2c(N3CCCc4cc(-c5cnn(C)c5)c(C(F)F)cc43)nc(N3CCC(C)(N)CC3)cc2n(C)c1=O` [Example 222] was under 50 nM.
On to `CNC(=O)c1ccc(-c2cc3c(cc2C(F)F)N(c2cc(OC)cc4c2cc(C)c(=O)n4C)CCC3)cn1` [Example 192, 5-(7-(Difluoromethyl)-7′-methoxy-1′,3′-dimethyl-2′-oxo-1′,2′,3,4-tetrahydro-2H-[1,5′-biquinolin]-6-yl)-N-methylpicolinamide], for which the inhibition at 10 µM (compound at 10 μM) stood at 47%.
Turning to `CNC(=O)N1CCN(c2cccc3c2cc(C)c(=O)n3C)c2ccc(-c3cnn(C)c3)cc21` [Example 75, 4-(1,3-Dimethyl-2-oxo-1,2-dihydroquinolin-5-yl)-N-methyl-7-(1-methyl-1H-pyrazol-4-yl)-3,4-dihydroquinoxaline-1(2H)-carboxamide], the half-maximal inhibitory concentration (IC50) is over 10 nM.

The values above are taken from patent publication US20230322724A1, “HETEROCYCLIC COMPOUNDS AS CBP/EP300 BROMODOMAIN INHIBITORS” (AURIGENE ONCOLOGY LIMITED, priority 2020, published 2023).
